Assay results from patent publication US20220401664A1, “FLUID DELIVERY DEVICES AND METHODS” (Droplette Inc., priority 2015, published 2022).
Where two headings read alike, the source gives them in different places.

Columns and labels:
E. Coli DH5-α = experiment: Bacterial inhibition by antibiotics passed through the device (OD 600 nm); assay type: cell-based; settings: azithromycin 5 mg/mL, vancomycin 15 mg/mL, streptomycin 20 mg/mL, 6 hours, 37°, versus same antibiotics not passed through device
Procedure: Inhibition of bacterial strain E. Coli DH5-α with antibiotics dissolved in deionized water was tested by passing the antibiotics and water through the device. The three antibiotics tested were azithromycin (5 mg/mL), vancomycin (15 mg/mL), and streptomycin (20 mg/mL). As a positive control, the same antibiotics (not passed through the device) were tested. Additional controls included deionized water, and deionized water passed through the device. After addition of 100 μl of antibiotics or deionized water into 8 mL of LB broth, 100 μl of bacterial stock at 0.5 OD at 600 nm was added. The experiment was performed with 4 biological replicates and 3 technical replicates, providing a sample size of n=12. Samples were incubated at 37° centigrade and 200 RPM in a shaker for 6 hours and then optical density was measured at 600 nm in a spectrophotometer.

[1] = for depth of dye penetration: delivered with the device held 1 cm away from skin; for dye penetration: standard aerosol (piezoelectric transducer only) held 1 cm away
Excerpt: A device having a configuration as disclosed in FIGS. 1-14 was used in a test along with a standard aerosol generated using only the piezoelectric transducer to compare dye penetration between the device and the aerosol. A mix of water and brilliant blue dye with a molecular weight of 792 Daltons was used to test penetration. Both the aerosol and the device were held 1 cm away from skin, and the solution was sprayed onto chicken and porcine skin-covered tissue. The skin and tissue were cut and dye penetration was measured. […] In between a range of 500 to 800 Daltons, there are a number of antibiotics, such as those used to treat skin and soft tissue infections. One example is ceftaroline, which is an antibiotic for Methicillin-resistant Staphylococcus aureus.

[2] = for Droplette Hydration, improvement over starting hydration: left hand
Procedure: In yet another experiment, 4 human subjects volunteered to have about 50 μL of sterile distilled water sprayed into their hand and have hydration levels measured with a Corneometer CM825 device. Skin was visually inspected for any discoloration at the time of study and after 24 hours, and subject comfort was assessed and self-reported. A pen was used to draw circles denoting a delivery site (having a circle diameter of about 1.5 cm) on the backs of the right and left hands. Hydration in the circled regions for both the right and left hands was assessed at the start with a Corneometer CM 825. A device having a configuration as disclosed in FIGS. 1-14 was used for about 30 seconds to deliver about 50 μL sterile water to the left hand of each subject. After about 5 seconds of rest, the hand was blotted dry with a tissue. About 100 μL of sterile water was topically applied to the back of the right hand of each subject in the circled region and spread to cover that area. After about 5 seconds of rest, that hand was blotted dry with a tissue.

[H]/N=C(/N)N[C@H]1[C@H](O)[C@@H](O)[C@H](O[C@@H]2O[C@@H](C)[C@](O)(C=O)[C@H]2O[C@@H]2O[C@@H](CO)[C@H](O)[C@@H](O)[C@@H]2NC)[C@@H](N/C(N)=N\[H])[C@@H]1O [streptomycin]
bacterial inhibition after being passed through the device (E. Coli DH5-α): retained their native function

brilliant blue [brilliant blue dye]
depth of dye penetration ([1]; chicken tissue): 1.23 cm
depth of dye penetration ([1]; porcine tissue): 1 cm
dye penetration ([1]; chicken skin): did not penetrate either animal skin to any noticeable depth
dye penetration ([1]; porcine skin): did not penetrate either animal skin to any noticeable depth

CC[C@H]1OC(=O)[C@H](C)[C@@H](O[C@H]2C[C@@](C)(OC)[C@@H](O)[C@H](C)O2)[C@H](C)[C@@H](O[C@@H]2O[C@H](C)C[C@H](N(C)C)[C@H]2O)[C@](C)(O)C[C@@H](C)CN(C)[C@H](C)[C@@H](O)[C@]1(C)O [azithromycin]
bacterial inhibition after being passed through the device (E. Coli DH5-α): retained their native function

O [water]
water delivered into skin, device compared to topical application ([2]; 4 subjects, young and mature skin): significantly more water was delivered
Droplette Hydration, improvement over starting hydration ([2]; Subject 3, 1 Hour: Resting, about 50 μL sterile water by device): 58% improvement over
Topical Hydration, improvement ([2]; Subject 3, 1 Hour: Resting, about 100 μL sterile water topically, right hand): 0% improvement (back
Droplette Hydration, improvement over starting hydration ([2]; Subject 3, 2 Hours: had eaten lunch and consumed 2 cups of water, device): 55% improvement over
Topical Hydration, improvement over baseline ([2]; Subject 3, 2 Hours: had eaten lunch and consumed 2 cups of water, topical, right hand): 11% improvement over

CN[C@H](CC(C)C)C(=O)N[C@H]1C(=O)N[C@@H](CC(N)=O)C(=O)N[C@H]2C(=O)N[C@H]3C(=O)N[C@H](C(=O)N[C@H](C(=O)O)c4cc(O)cc(O)c4-c4cc3ccc4O)[C@H](O)c3ccc(c(Cl)c3)Oc3cc2cc(c3O[C@@H]2O[C@H](CO)[C@@H](O)[C@H](O)[C@H]2O[C@H]2C[C@](C)(N)[C@H](O)[C@H](C)O2)Oc2ccc(cc2Cl)[C@H]1O [vancomycin]
bacterial inhibition after being passed through the device (E. Coli DH5-α): retained their native function
